Results from patent EP0616804A1 (priority 1993, dated 1994).
Where “and” joins values, the source holds several entries; their conditions need not be identical. Equal entries are not always repeated. Where two headings read alike, the source gives them in different places.

Assays:
[1] = Light/dark exploration test; type: in vivo, mouse; conditions: 10 mg/kg ip, total hours (32) referred to all animals, 8 animals, 4 hours; for Dark section: controls 14; for Lit section: controls 18
Method: The test is performed with a cage subdivided into two sections, a dark and a lit one.
Evidence was provided that the mice treated with adequate doses of anxiolytic drugs, e.g. Diazepam or Buspirone, spend a longer time in the lit section than controls.
The anxiolytic activity, if any, of the molecules can be evaluated on the basis of the time spent in the lit section.
The total duration of the test for each group of 8 animals was 4 hours.
The data are expressed as total hours (32) referred to all animals.

[2] = rats, ip; antidepressants and anxiolytics known to the prior art; cited from earlier work
Toxicity (LD50), Table 6 = conditions: rat, in vivo, rats, read-out: LD₅₀
Description: The toxicity of gamma-hydroxybutyrate sodium salt to rats compared with antidepressants and anxiolytics known to the prior art is shown in Table 6.

[3] = set-up: species or system Male Sprague-Dawley rats; conditions: rat, in vivo
[4] = Despair test (Porsolt behavioural test, duration of immobility); type: in vivo, Male Swiss mice (CD strain, Charles River); conditions: mice; for <%: decrease of immobility vs dose 0; for Duration of immobility: one hour before testing
Method: This behavioural test developed by R.D. Porsolt et al. (Arch. int. Pharmacodyn. 229, 327-336, 1977) is commonly used to evaluate the activity of antidepressant agents.
Male Swiss mice (CD strain, Charles River) weighing 30 g were used and assigned at random to the various treatment groups.
The mice were plunged individually into a Plexiglas cylinder of 25 cm in height and 9 cm in diameter, filled with water at 24°C, for a 6 min latency up to 6 cm from the upper lip.
The duration of the test was 6 minutes. The time during which the animal kept floating passively was measured starting from the 2nd minute (duration of immobility).
One hour before testing, sodium gamma-hydroxybutyrate (NaGHB) as an acqueous suspension additioned of non-ionic surfactant Tween was administered by i.p. injection in a volume of 10 ml/kg, or per os.
Blind tests were performed. The statistical analysis of the data was performed, whenever possible, by Student's t-test, otherwise by Mann Whitney's non-parametric test.

`CN1C(=O)CN=C(c2ccccc2)c2cc(Cl)ccc21` [Diazepam] gave a Dark section [1] of 7 total hours and a Lit section [1] of 25 total hours.

In the case of `O=C1CC2(CCCC2)CC(=O)N1CCCCN1CCN(c2ncccn2)CC1` [Buspirone], the “LD₅₀” value [2] is listed as 136 mg/kg, the Dark section [1] is listed as 10 total hours and the Lit section [1] is listed as 22 total hours.

For `O=C([O-])CCCO.[Na+]` [NaGHB, sodium gamma-hydroxybutyrate], the LD50 (Toxicity (LD50), Table 6; po, os) was 12400 mg/kg, the LD50 (Toxicity (LD50), Table 6; ip) was 3280 mg/kg and the mean reaction time [3] was “decreased mean reaction time”. The “number of attempts to escape” value [3] was “increased number of attempts to escape”, the “difference between the group of controls and the CNaGHB group” value ([3]; 10 mg/kg) was “no significant difference” and the “Mean reaction time, mean ± S.E.” value ([3]; ip, 10 mg/kg) was 5.76±0.34 and 5.4±1.0. The “No. of escape failures, mean ± S.E.” value ([3]; ip, 10 mg/kg) was 21.3±1.1 and 23.6±2.6, the Dark section [1] was 9 total hours and the Lit section [1] was 23 total hours. For the same compound, the “<%” value ([4]; ip, 5 mg/kg) was 15%, the “<%” value ([4]; ip, 10 mg/kg) was 27% and the “<%” value ([4]; ip, 20 mg/kg) was 36%. For the same compound, the “<%” value ([4]; ip, 40 mg/kg) was 43%, the “<%” value ([4]; per os, 20 mg/kg) was 17% and the “<%” value ([4]; per os, 50 mg/kg) was 40%. For the same compound, the “<%” value ([4]; per os, 100 mg/kg) was 42%, the “Duration of immobility” value ([4]; ip, 5 mg/kg) was 179 ± 24 s and the “Duration of immobility” value ([4]; ip, 10 mg/kg) was 153 ± 19 s. The “Duration of immobility” value ([4]; ip, 20 mg/kg) was 134 ± 26 s, the “Duration of immobility” value ([4]; ip, 40 mg/kg) was 120 ± 12 s and the “Duration of immobility” value ([4]; per os, 20 mg/kg) was 189 ± 23 s. The “Duration of immobility” value ([4]; per os, 50 mg/kg) was 137 ± 16 s and the “Duration of immobility” value ([4]; per os, 100 mg/kg) was 133 ± 31 s.
